Assay [1] deals with 6×HIS-tankyrase 1 (1091-1325) (Homo sapiens (Human), UniProt O95271). The experiment in a line: biochemical. Type of assay: biochemical. Conditions: […] enzyme, 400 nM NAD, 60 minutes at room temperature; read-out: TNKS1 IP IC50.
In assay [2] the target is 6×HIS-tankyrase 2 (946-1162) (Homo sapiens (Human), UniProt Q9H2K2). The experiment in a line: Tankyrase 2 biochemical assay (AlphaLisa, anti-PAR detection). As to conditions: 4 nM enzyme, 250 nM NAD; read-out: TNKS2 IP IC50. For orientation: Bead proximity is the source of the signal in Alpha formats.
6×HIS-tankyrase 2 (946-1162), sequence (Q9H2K2 946-1162): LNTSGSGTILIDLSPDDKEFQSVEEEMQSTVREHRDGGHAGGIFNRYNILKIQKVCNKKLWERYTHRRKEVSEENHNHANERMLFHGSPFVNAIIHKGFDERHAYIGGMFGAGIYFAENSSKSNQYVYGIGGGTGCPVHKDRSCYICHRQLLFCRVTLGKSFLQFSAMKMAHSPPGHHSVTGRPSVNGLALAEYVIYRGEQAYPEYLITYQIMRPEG
For assay [3], the system named is total β-catenin in SW480 colorectal cells. The experiment in a line: cells. Conditions: Homo sapiens. Type of assay: cell-based. A digest of the protocol:
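SW480 cells in growth medium (MEM alpha, 10% heat-inactivated FBS, 10 mM HEPES) treated with a 10-point, 3-fold dilution series of TNKS inhibitor for 40–48 h at 37 °C. Lysates run on an MSD sandwich immunoassay for total β-catenin, read by electrochemiluminescence.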

Assay [4] has as its system Axin2 in SW480 cells. The experiment in a line: cells. Format: cell-based. Conditions: Homo sapiens, read-out: Axin2 384 IF EC50 IP. Put shortly:
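SW480 cells treated 24 h at 37° C (0.5% DMSO final), fixed/permeabilized, immunostained for Axin2. ArrayScan imaging quantified ring-spot intensity; Axin2 accumulation expressed as percent of control, EC50 from concentration-response.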

Assay [5] deals with 8×TCF promoter-driven Firefly luciferase (Wnt reporter) in HEK-293 cells. The experiment in a line: 2H9-STF assay, Wnt ligand activated HEK-293 assay in WT APC cellular context. Type of assay: cell-based. Conditions: Homo sapiens. Here is the method:
HEK-293 cells engineered with an 8×TCF promoter-driven Firefly (FF) luciferase gene (Wnt reporter) along with an SV40 promoter-driven Renilla (RN) luciferase gene (control reporter) were used to measure the potency of tankyrase compounds in the context of Wnt ligand activation in a wild-type (non-APC mutated) cellular background. The engineered HEK-293 cells were plated (25 μL) at a density of 40,000 cells/well in black, clear-bottom, 96-well View plates (PerkinElmer) in normal growth medium (DMEM with 10% FBS with no antibiotics). Tankyrase inhibitors (5 μL) were transferred to cells from a three-fold serially diluted compound plate. A 10-point dilution series was tested starting at a concentration (10 μM final concentration in assay). Column 6 contained only DMSO and served as the “HI” control. Cells and compounds were incubated together for 1 hour at 37° C. after which the Wnt3a ligand (pathway inducer) was added to all wells except column 12 which served as the “LO” control. Twenty microliters of diluted recombinant mouse Wnt3a (R & D Systems) was added to the cells for a final concentration of 200 ng/mL (5 nM which is the Wnt3a˜EC80) and the plates were incubated at 37° C. for 18 to 24 hours. The Dual-Glo Reagents (Promega) were added as directed by manufacturer to assay the FF and RN luciferase activity. Luciferase activity was measures using the EnVision multilabel plate reader (PerkinElmer).

Assay [6] relates to 8×TCF promoter-driven Firefly luciferase (Wnt reporter) in DLD-1 colorectal cells. The experiment in a line: DLD-1-STF assay, constitutively activated Wnt pathway in mutant APC cancer cell context. Conditions: Homo sapiens. Type of assay: cell-based. As to the method: DLD-1-STF Assay. Constitutively Activated Wnt Pathway Assay in Mutant APC Cancer Cell Context
DLD-1 colorectal cells engineered with an 8×TCF promoter-driven Firefly (FF) luciferase gene (Wnt reporter) along with an EF1a promoter-driven Renilla (RN) luciferase gene (control reporter) were used to measure the potency of tankyrase compounds in the context of the constitutively activated Wnt pathway due to mutated APC in colorectal cancer cells. The engineered DLD-1 cells were plated (45 μL) at a density of 10,000 cells/well in black, clear-bottom, 96-well View plates (PerkinElmer) in normal growth medium (RPMI with 10% FBS with no antibiotics). Tankyrase inhibitors (5 μL) were transferred to cells from a three-fold serially diluted compound plate. A 10-point dilution series was tested starting at a concentration (10 μM final concentration in assay). Column 6 contained only DMSO and served as the “HI” control. […] The plates were incubated at 37° C. for 40 to 48 hours. The Dual-Glo Reagents (Promega) were added as directed by manufacturer to assay the FF and RN luciferase activity. Luciferase activity was measures using the EnVision multilabel plate reader (PerkinElmer).

Assay [7] relates to SW480 cells. The experiment in a line: Colony formation assay. Format: cell-based. As to conditions: Homo sapiens, read-out: SW480 Colony Inhibition IC50. Here is the method: Colorectal cell lines grown under normal logarithmic growth conditions in 10% FBS were trypsinized, counted in a Vi-CELL Cell Viability Analyzer and diluted to 400 cells/mL in RPMI media containing 0.5% FBS. Cells were plated in 12 well plates using 0.5 mL of diluted cells for a total of 200 cells/well. Tankyrase inhibitors were diluted in RPMI (0.5% FBS) at 2× final concentration. Ten concentrations of compound were prepared starting at 20 μM and serially diluted by 2 fold and 0.5 mL of diluted compound was added to each well. The final concentration range tested was thus 10 μM down to 20 nM. Two additional wells per plate were treated with the vehicle control (0.1% DMSO). The cells were grown for 12 days with the media and the compounds changed at day 6. Colonies were visualized by fixing and staining with Crystal Violet dye diluted in 1× fixation solution (2% formaldehyde, 0.2%, glutaraldehyde in 1×PBS) for 30 minutes at room temperature. The plates were washed extensively and air dried. Images of plates were captured and the colony counts were performed using the Bioreader® (Biosys) reader.

Setting [8] is: SW480 cells, 40 to 48 hours, top concentration 10 μM, read-out: SW480-Total β-Catenin IC50 IP.
The mark [9] stands for this setting: SW480, 24 h, SW480 cells, 24 hours.
Setting [10] is: DLD-1 reporter cells, 40 to 48 hours, read-out: DLD1-STF-FF/RL * 100 IC50.
Where [11] appears, read: HEK293, read-out: 2H9-Wnt3a-STF-FF/RL * 100 IC50.

Read-outs that look alike come from different tables or passages of the source.

6×HIS-tankyrase 1 (1091-1325), sequence (O95271 1091-1325): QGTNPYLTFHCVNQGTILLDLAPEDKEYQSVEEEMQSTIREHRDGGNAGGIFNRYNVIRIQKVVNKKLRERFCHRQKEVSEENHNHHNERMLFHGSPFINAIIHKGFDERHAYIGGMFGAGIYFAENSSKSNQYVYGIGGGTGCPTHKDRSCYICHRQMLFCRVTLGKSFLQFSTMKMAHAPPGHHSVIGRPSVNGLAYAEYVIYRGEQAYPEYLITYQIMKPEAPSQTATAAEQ

A word on the EC50: it is the concentration at which the effect is half-maximal. `CC1(C)OC(=O)N(c2ccc(-c3cnc(N)c(-c4ncc(F)cn4)c3)cc2)[C@H]1c1ccccc1` [Example 64, (S)-3-(4-(6-amino-5-(5-fluoropyrimidin-2-yl)pyridin-3-yl)phenyl)-5,5-dimethyl-4-phenyloxazolidin-2-one]: the IC50 worked out at 85 nM in assay [1], 48.3 nM in assay [2] and 293 nM in assay [3] (setting [8]). The EC50 in assay [4] (setting [9]) was determined as 3230 nM.
Turning to `CC1(C)OC(=O)N(c2ccc(-c3cnc(N)c(-c4ccc5nncn5n4)c3)cc2)[C@H]1c1ccccc1` [Example 12, (S)-3-(4-(5-([1,2,4]triazolo[4,3-b]pyridazin-6-yl)-6-aminopyridin-3-yl)phenyl)-5,5-dimethyl-4-phenyloxazolidin-2-one], the values for the IC50 in assay [1], in assay [2] and in assay [3] (setting [8]) were 52.1 nM, 49.3 nM and 212 nM, respectively.
Turning to `CC1(C)OC(=O)N(c2ccc(-c3cnc(N)c(-c4ncccn4)c3)cc2)[C@H]1c1ccccc1` [Example 65, (S)-3-(4-(6-amino-5-(pyrimidin-2-yl)pyridin-3-yl)phenyl)-5,5-dimethyl-4-phenyloxazolidin-2-one], the IC50 in assay [1] stood at 49 nM; in assay [2] it was 25.9 nM; in assay [3] (setting [8]), 233 nM; in assay [5] (HEK293, HEK-293 reporter cells, 200 ng/mL mouse Wnt3a, 18 to 24 hours, read-out: 2H9-Wnt3a-STF-FF/RL * 100 IC50), 95.9 nM; in assay [6] (setting [10]), 107 nM; in assay [7] (288 h, SW480, 0.5% FBS, 12 days), 1300 nM. Moreover, the EC50 in assay [4] (setting [9]) stood at 1440 nM.
As to `CC1(C)OC(=O)N([C@H]2CC[C@H](NC(=O)c3cccc4cccnc34)CC2)[C@H]1c1ccccc1` [Example 26, N-((1S,4r)-4-((S)-5,5-dimethyl-2-oxo-4-phenyloxazolidin-3-yl)cyclohexyl)quinoline-8-carboxamide], the IC50 came to 55 nM in assay [5] (setting [11]) and 1300 nM in assay [7] (SW480, 288 h).
Regarding `CC1(C)OC(=O)N(c2ccc(-c3cc(-c4ncccn4)c[nH]c3=O)cc2)[C@H]1c1ccccc1` [Example 4, (S)-5,5-Dimethyl-3-(4-(2-oxo-5-(pyrimidin-2-yl)-1,2-dihydropyridin-3-yl)phenyl)-4-phenyloxazolidin-2-one], the IC50 in assay [1] was determined as 76.9 nM; in assay [2], 65.9 nM; in assay [3] (SW480, read-out: SW480-Total β-Catenin IC50 IP), 750 nM; in assay [5] (setting [11]) it was 290 nM. Further, the half-maximal effective concentration (EC50) in assay [4] (SW480, 24 h) was determined as 2840 nM.
On to `CC1(C)OC(=O)N([C@H]2CC[C@H](n3c(=O)[nH]c4cc(C#N)ccc43)CC2)[C@H]1c1ccccc1` [Example 47, 1-((1S,4r)-4-((S)-5,5-dimethyl-2-oxo-4-phenyloxazolidin-3-yl)cyclohexyl)-2-oxo-2,3-dihydro-1H-benzo[d]imidazole-5-carbonitrile], for which the IC50 in assay [3] (setting [8]) worked out at 53.7 nM; in assay [6] (DLD-1, read-out: DLD1-STF-FF/RL * 100 IC50), 12 nM. For the same compound, the concentration for a half-maximal effect (EC50) in assay [4] (SW480 cells, 24 hours) was found to be 72.9 nM.
`CC1(C)OC(=O)N([C@H]2CC[C@H](n3c(=O)[nH]c4cnccc43)CC2)[C@H]1c1ccccc1` [Example 23, (S)-5,5-dimethyl-3-((1r,4S)-4-(2-oxo-2,3-dihydro-1H-imidazo[4,5-c]pyridin-1-yl)cyclohexyl)-4-phenyloxazolidin-2-one]: the IC50 in assay [3] (setting [8]) came out at 143 nM; in assay [6] (setting [10]), 44 nM. Moreover, in assay [4] (setting [9]), the concentration for a half-maximal effect (EC50) worked out at 231 nM.

Source of the values: patent US9340549B2, “Oxazolidinone compounds and derivatives thereof” (priority 2012, dated 2016).
